Several values for one entry are separate records, joined by “and”; a condition that tells them apart may be missing. Identical values can stand only once. Like-named read-outs stand apart in the source and are kept apart here. Positions of bridges follow the written chain, without caps; N, C: chain ends. Residues, ends and D or L forms follow the SMILES beside them. A value given as a limit tells only on which side of the number the result lay.

This is an account of results in publication PMC10758494 (Frontiers in Pharmacology, 2023).

The target in one experiment is T1, rat α9α10 nAChR (Rattus norvegicus, UniProt P43144+Q9JLB5).
T1 construct: expressed in transfected cells; host or cells: Xenopus laevis oocytes injected with cRNA
Kind of experiment: cell-based. The following applies: for IC50: 500 μM ACh, X. laevis oocytes.

The subject of a further experiment is SH-SY5Y cells. The experiment can be described thus: Calcium imaging, effect of compound alone on [Ca2+]i in SH-SY5Y cells. The format is cell-based, human. The settings on record: 10 μM, without α7 nAChR activation.
In another experiment the target is T2, human α7 nAChR (Homo sapiens, UniProt P36544).
T2 construct: α7 nAChR endogenously expressed in neuroblastoma SH-SY5Y cells; endogenous in cells; host or cells: SH-SY5Y human neuroblastoma cells
The experiment can be described thus: cell-based. The settings on record: for inhibition at 500 µM: read-out: Inhibition of PNU282987-evoked response.

The target of experiment [1] is T3, human α9α10 nAChR (Homo sapiens, UniProt Q9GZZ6+Q9UGM1).
T3 construct: expressed in transfected cells; host or cells: Xenopus laevis oocytes injected with cRNA
On the set-up: method as in Lebedev et al., 2019. The following applies: read-out: IC50 on α9α10 nAChR; 95% CI in brackets; ref Lebedev et al., 2019; cited from earlier work.

Experiment [2] deals with T3, human α9α10 nAChR. The experiment can be described thus: Two-electrode voltage clamp, human α9α10 nAChR in X. laevis oocytes. Format: cell-based. The settings on record: IC50, inhibition of ACh-evoked currents (α9α10 nAChR), 500 μM ACh, mean ± SEM.

T3 sequence (Q9UGM1 26-479 limits assumed): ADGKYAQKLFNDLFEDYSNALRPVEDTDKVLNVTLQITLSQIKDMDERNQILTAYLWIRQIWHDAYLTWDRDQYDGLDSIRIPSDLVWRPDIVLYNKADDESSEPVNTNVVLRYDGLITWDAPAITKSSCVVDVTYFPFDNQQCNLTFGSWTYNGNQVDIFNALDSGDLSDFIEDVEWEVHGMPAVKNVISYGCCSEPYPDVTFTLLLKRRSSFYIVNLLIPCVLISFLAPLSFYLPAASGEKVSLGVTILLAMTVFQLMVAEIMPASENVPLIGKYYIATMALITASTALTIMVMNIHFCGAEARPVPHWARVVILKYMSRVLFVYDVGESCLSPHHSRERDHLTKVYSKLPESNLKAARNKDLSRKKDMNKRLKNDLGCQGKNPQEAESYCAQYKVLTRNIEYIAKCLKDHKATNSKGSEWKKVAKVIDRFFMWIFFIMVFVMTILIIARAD
T3 sequence (Q9GZZ6 25-450): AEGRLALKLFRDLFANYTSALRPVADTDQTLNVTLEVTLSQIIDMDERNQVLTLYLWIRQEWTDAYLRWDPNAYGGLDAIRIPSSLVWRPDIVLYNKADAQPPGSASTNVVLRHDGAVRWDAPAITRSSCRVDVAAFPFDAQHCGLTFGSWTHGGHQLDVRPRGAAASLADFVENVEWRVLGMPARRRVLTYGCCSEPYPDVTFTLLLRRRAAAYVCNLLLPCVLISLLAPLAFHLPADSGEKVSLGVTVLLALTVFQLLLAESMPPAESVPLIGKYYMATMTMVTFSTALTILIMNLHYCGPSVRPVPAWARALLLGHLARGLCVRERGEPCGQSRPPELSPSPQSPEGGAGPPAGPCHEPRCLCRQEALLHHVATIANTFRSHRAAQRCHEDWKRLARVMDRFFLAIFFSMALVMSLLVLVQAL
T1 sequence (P43144 26-479): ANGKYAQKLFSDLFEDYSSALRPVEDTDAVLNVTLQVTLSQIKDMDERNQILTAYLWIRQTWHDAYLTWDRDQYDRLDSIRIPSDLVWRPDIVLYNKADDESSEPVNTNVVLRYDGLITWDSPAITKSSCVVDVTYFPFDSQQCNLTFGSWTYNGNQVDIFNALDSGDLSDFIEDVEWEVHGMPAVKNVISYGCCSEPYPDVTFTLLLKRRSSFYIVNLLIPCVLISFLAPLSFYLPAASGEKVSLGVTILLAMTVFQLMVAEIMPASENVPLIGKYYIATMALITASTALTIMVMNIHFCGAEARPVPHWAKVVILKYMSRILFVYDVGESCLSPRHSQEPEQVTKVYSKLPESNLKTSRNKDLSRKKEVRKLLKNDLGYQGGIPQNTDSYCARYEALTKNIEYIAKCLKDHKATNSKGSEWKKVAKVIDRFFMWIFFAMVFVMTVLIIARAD
T1 sequence (Q9JLB5 25-447): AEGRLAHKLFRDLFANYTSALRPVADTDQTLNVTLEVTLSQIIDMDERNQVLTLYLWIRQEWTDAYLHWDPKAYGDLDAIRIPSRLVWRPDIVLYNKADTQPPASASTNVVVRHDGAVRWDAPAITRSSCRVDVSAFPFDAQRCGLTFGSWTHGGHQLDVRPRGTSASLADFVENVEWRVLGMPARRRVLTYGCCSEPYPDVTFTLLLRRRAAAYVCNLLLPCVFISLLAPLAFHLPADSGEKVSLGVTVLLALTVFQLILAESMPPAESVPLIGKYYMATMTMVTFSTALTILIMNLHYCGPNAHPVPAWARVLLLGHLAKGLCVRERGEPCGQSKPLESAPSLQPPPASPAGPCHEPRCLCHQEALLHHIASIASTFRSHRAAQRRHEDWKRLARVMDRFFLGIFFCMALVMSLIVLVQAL
T2 sequence (P36544 23-502): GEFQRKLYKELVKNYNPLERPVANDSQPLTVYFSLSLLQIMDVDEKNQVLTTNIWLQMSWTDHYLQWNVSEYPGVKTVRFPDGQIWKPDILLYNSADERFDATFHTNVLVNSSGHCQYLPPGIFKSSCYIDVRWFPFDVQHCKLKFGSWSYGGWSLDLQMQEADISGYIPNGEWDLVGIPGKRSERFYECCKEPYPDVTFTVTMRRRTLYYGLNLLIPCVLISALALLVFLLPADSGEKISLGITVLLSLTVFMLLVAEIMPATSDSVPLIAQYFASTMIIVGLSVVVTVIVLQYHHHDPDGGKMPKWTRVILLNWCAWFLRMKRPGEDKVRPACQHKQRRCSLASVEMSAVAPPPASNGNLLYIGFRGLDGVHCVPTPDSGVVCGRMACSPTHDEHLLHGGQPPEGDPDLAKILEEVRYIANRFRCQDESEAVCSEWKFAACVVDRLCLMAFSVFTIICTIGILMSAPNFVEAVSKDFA

Turning to `CC(CN)CNCCCCNCC(C)CN` (racemic) [rac-2,11-Me2Spm], the IC50 (commonly the concentration that gives 50% inhibition) at rat α9α10 nAChR (read-out: IC50, inhibition of rat α9α10 nAChR) was roughly 500000 nM.

As for `N=C(N)NCCC[C@H](N)C(=O)NCCCNCCCNCCCCCNC(=O)[C@H](CC(N)=O)NC(=O)Cc1ccc(O)cc1O` [AgTx-636, argiotoxin-636], the “[Ca2+]i change caused by the compound alone” value with SH-SY5Y cells is “noticeable [Ca^2+]i increase”. The IC50 at rat α9α10 nAChR (IC50, inhibition of ACh-evoked currents (rat α9α10 nAChR)) was ~200 nM and 220 nM. For the same compound, the inhibition (usually the percentage by which the read-out fell short of the control) at 10 µM at human α7 nAChR (SH-SY5Y, read-out: Inhibition of the action of α7 nAChR agonist PNU282987) was no less than 70%.

Turning to `NCCCCN=C(N)N` [Agm, agmatine], the inhibition at 500 µM at human α7 nAChR (SH-SY5Y) is roughly 20%.

Consider `N=C(N)NCCC[C@H](NC(=O)[C@H](CCCNC(=N)N)NC(=O)[C@H](CCCNC(=N)N)NC(=O)[C@H](CCCNC(=N)N)NC(=O)[C@H](CCCNC(=N)N)NC(=O)[C@H](CCCNC(=N)N)NC(=O)[C@H](CCCNC(=N)N)NC(=O)[C@@H](N)CCCNC(=N)N)C(=O)O` [R8, octa-arginine], for which the IC50 was 14.5 ± 1 nM on human α7 nAChR and 44 nM on human α9α10 nAChR [1].

Take `NCCCNCCCCNCCCN` [Spm, spermine]: the “Inhibition of rat α9α10 nAChR at 500 μM” value at rat α9α10 nAChR is given as “no inhibition”. Moreover, the inhibition at 500 µM at human α7 nAChR (SH-SY5Y) was roughly 20%.

`N=C(N)NCCC[C@@H]1NC(=O)[C@H](CCCNC(=N)N)NC(=O)[C@H](CCCNC(=N)N)NC(=O)[C@H](CCCNC(=N)N)NC(=O)[C@H](CCCNC(=N)N)NC(=O)[C@H](CCCNC(=N)N)NC(=O)[C@H](CCCNC(=N)N)NC(=O)[C@H](CCCNC(=N)N)NC(=O)[C@@H](N)CSSC[C@@H](C(=O)O)NC1=O` [“cyclo”R8] (H-CRRRRRRRRC-OH; disulfide 1-10): the IC50 against human α7 nAChR was 13.3 ± 3 nM; against human α9α10 nAChR [2] it was ~60 nM and 61.8 nM.

Regarding α-cobratoxin [CTX], in the experiment with human α7 nAChR (compound 5 μM, 200 nM PNU282987, SH-SY5Y cells), the “Suppression of α7 nAChR activity” value is “completely suppressed”.
